Common to all, as to assay type: biochemical
The target of test [1] is T1, human JAK3 (aa 795-1124) catalytic domain (Homo sapiens, UniProt P52333).
T1 construct: JAK3 (aa 795-1124); purchased Carna Biosciences; host or cells: baculovirus expression system (insect cells)
The test can be described thus: In vitro JAK kinase assay (TR-FRET), JAK3. The settings on record: ATP 0.6 μM, peptide 140 nM, 30 minutes at room temperature. On the procedure: (§1) Compounds were screened for their ability to inhibit JAK1, JAK2 and JAK3 using the assays as indicated below.
(§2) The catalytic domains of human JAK1 (aa 850-1154), JAK2 (aa 826-1132), JAK3 (aa 795-1124) and Tyk2 (aa 871-1187) were expressed as N-terminal GST-fusion proteins using a baculovirus expression system and were purchased from Carna Biosciences. The enzymatic activity was assayed using as substrate a biotinylated peptide, poly (GT)-Biotin (CisBio). The peptide concentration in the reactions was 60 nM for JAK1, 20 nM for JAK2, 140 nM for JAK3 and 50 nM for Tyk2. The degree of phosphorylation was detected by TR-FRET (time-resolved fluorescence energy transfer).
(§3) IC50s of compounds were measured for each kinase in a reaction mixture containing the enzyme, ATP and the peptide in 8 mM MOPS (pH 7.0), 10 mM MgCl2, 0.05% β-mercaptoethanol, 0.45 mg/ml BSA. The ATP concentration in the reactions was 3 μM for JAK1, 0.2 μM for JAK2, 0.6 μM for JAK3 and 1.8 μM for Tyk2. The enzymatic reactions took place for 30 minutes at room temperature. Then, the reactions were stopped with 20 μL of quench detection buffer (50 mM HEPES, 0.5 M KF, EDTA 0.25 M, 0.1% (w/v) BSA, pH 7.5) containing 0.115 μg/mL of anti-phosphoTyr (PT66)-Cryptate (CisBio) and a variable concentration of SA-XL665 (CisBio) to keep the SA-B ratio constant. Incubate for 3 h and read on Victor 2V spectrofluorometer (Perkin Elmer) set to read fluorescence resonance energy transfer.
A general note: TR-FRET usually uses a lanthanide donor and a delayed reading to cut background.

The target in test [2] is T2, human JAK2 (aa 826-1132) catalytic domain (Homo sapiens, UniProt O60674).
T2 construct: JAK2 (aa 826-1132); purchased Carna Biosciences; host or cells: baculovirus expression system (insect cells)
T2 sequence (O60674 826-1132): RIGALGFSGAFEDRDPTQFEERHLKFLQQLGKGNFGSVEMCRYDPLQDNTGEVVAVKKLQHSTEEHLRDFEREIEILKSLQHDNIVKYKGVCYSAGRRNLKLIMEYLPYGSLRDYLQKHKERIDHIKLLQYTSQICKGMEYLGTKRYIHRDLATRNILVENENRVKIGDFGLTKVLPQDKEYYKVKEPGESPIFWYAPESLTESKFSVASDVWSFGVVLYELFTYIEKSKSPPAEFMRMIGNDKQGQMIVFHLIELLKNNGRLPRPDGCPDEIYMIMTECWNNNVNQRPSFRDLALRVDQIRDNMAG
Kind of test: In vitro JAK kinase assay (TR-FRET), JAK2. As to conditions: ATP 0.2 μM, peptide 20 nM, 30 minutes at room temperature. On the procedure:
as §1, §2, §3

The target of test [3] is T3, human JAK1 (aa 850-1154) catalytic domain (Homo sapiens, UniProt P23458).
T3 construct: human JAK1 (aa 850-1154); purchased Carna Biosciences; host or cells: baculovirus expression system (insect cells)
T3 sequence (P23458 850-1154): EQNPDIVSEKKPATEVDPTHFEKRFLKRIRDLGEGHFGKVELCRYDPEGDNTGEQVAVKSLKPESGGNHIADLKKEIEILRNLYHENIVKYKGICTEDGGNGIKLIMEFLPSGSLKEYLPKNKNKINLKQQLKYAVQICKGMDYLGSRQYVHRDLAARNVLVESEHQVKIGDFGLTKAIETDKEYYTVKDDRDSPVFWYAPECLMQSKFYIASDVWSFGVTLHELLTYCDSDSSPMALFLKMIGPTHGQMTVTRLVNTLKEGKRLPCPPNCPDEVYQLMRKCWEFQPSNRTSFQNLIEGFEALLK
Kind of test: In vitro JAK kinase assay (TR-FRET), JAK1. The settings on record: ATP 3 μM, peptide 60 nM, 30 minutes at room temperature. On the procedure:
as §1, §2, §3

T1 sequence (P52333 795-1124): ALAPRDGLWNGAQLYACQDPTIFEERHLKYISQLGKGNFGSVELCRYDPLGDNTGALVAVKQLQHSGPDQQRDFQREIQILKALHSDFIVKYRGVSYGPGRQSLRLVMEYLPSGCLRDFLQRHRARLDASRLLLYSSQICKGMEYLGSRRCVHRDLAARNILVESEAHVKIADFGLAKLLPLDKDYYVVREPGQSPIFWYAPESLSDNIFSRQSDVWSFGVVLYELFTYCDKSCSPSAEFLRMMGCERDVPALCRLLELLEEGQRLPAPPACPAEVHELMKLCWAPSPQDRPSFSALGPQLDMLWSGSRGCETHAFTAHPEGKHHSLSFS

In the case of `O=c1[nH]cccc1Nc1nccc(N[C@H]2CC[C@H](CS(=O)(=O)N3CCCC(O)C3)CC2)n1` (relative stereo) [Example 14, 3-({4-[(trans-4-{[(3-hydroxypiperidin-1-yl)sulfonyl]methyl}cyclohexyl)amino]pyrimidin-2-yl}amino)pyridin-2(1H)-one], the figures for the IC50 in test [1], in test [2] and in test [3] were 100 to 1000 nM, under 100 nM and over 1000 nM, respectively.

Turning to `C[C@H](Nc1cncc(Nc2ccc[nH]c2=O)n1)c1ccc(F)cn1` [Example 11, 3-[(6-{[(1S)-1-(5-Fluoropyridin-2-yl)ethyl]amino}pyrazin-2-yl)amino]pyridin-2(1H)-one], the IC50 in test [1], in test [2] and in test [3] was under 100 nM in each case.

Take `C[C@H](Nc1nc(Nc2ccc[nH]c2=O)ncc1O)c1ccc(F)cn1` [Example 5, 3-[(4-{[(1S)-1-(5-fluoropyridin-2-yl)ethyl]amino}-5-hydroxypyrimidin-2-yl)amino]pyridin-2(1H)-one]: the IC50 in test [1], in test [2] and in test [3] was under 100 nM in each case.

On to `C[C@H](Nc1nc(Nc2ccc[nH]c2=O)ncc1C(N)=O)c1ccc(F)cn1` [Example 6, (S)-4-(1-(5-fluoropyridin-2-yl)ethylamino)-2-(2-oxo-1,2-dihydropyridin-3-ylamino) pyrimidine-5-carboxamide], for which the results for the half-inhibitory concentration (IC50) in test [1], in test [2] and in test [3] were under 100 nM, under 100 nM and 100 to 1000 nM, respectively.

As to `Cc1c(Nc2ccc[nH]c2=O)nc(N[C@@H]2CCCN(C(=O)CC#N)C2)nc1N1CCOCC1` [Example 22, 3-[(3R)-3-({5-methyl-4-morpholin-4-yl-6-[(2-oxo-1,2-dihydropyridin-3-yl)amino]pyrimidin-2-yl}amino)piperidin-1-yl]-3-oxopropanenitrile], the IC50 in test [1], in test [2] and in test [3] was under 100 nM throughout.

For the molecule `Cc1cnc(Nc2cc(Cl)c[nH]c2=O)nc1N[C@@H](C)c1ccc(F)cn1` [Example 7, (S)-5-chloro-3-(4-(1-(5-fluoropyridin-2-yl)ethylamino)-5-methylpyrimidin-2-ylamino)pyridin-2(1H)-one], the IC50 in test [1], in test [2] and in test [3] was under 100 nM throughout.

Turning to `COc1cnc(Nc2ccc[nH]c2=O)nc1N[C@@H](C)c1ccc(F)cn1` [Example 4, 3-[(4-{[(1S)-1-(5-fluoropyridin-2-yl)ethyl]amino}-5-methoxypyrimidin-2-yl)amino]pyridin-2(1H)-one], the half-inhibitory concentration (IC50) in test [1], in test [2] and in test [3] was under 100 nM throughout.

On to `N#CCC(=O)N1CCC[C@@H](Nc2nc(Nc3ccc[nH]c3=O)ncc2F)C1` [Example 17, (R)-3-(3-(5-Fluoro-2-(2-oxo-1,2-dihydropyridin-3-ylamino)pyrimidin-4-ylamino)piperidin-1-yl)-3-oxopropanenitrile], for which the concentration for half-maximal inhibition (IC50) in test [1], in test [2] and in test [3] was under 100 nM each time.

For the molecule `O=c1[nH]cccc1Nc1ncc(F)c(N[C@@H]2CCCN(c3nnc[nH]3)C2)n1` [Example 18, (R)-3-(4-(1-(4H-1,2,4-Triazol-3-yl)piperidin-3-ylamino)-5-fluoropyrimidin-2-ylamino) pyridin-2(1H)-one], the 50% inhibitory concentration (IC50) in test [1] is under 100 nM; in test [2], under 100 nM; in test [3], 100 to 1000 nM.

On to `Cc1cnc(Nc2ccc[nH]c2=O)nc1N[C@H]1CC[C@H](CC#N)CC1` [Example 13, 2-((1r,4r)-4-(5-Methyl-2-(2-oxo-1,2-dihydropyridin-3-ylamino)pyrimidin-4-ylamino)cyclohexyl)acetonitrile], for which the IC50 in test [1], in test [2] and in test [3] was under 100 nM throughout.

Take `C[C@H](Nc1cccc(Nc2ccc[nH]c2=O)n1)c1ccc(F)cn1` [Example 12]: the concentration for half-maximal inhibition (IC50) is under 100 nM in test [1], under 100 nM in test [2] and 100 to 1000 nM in test [3].

As for `N#CCC(=O)N1CCC[C@@H](Nc2nc(Nc3ccc[nH]c3=O)nc(N3CCOCC3)c2F)C1` [Example 20, 3-[(3R)-3-({5-fluoro-6-morpholin-4-yl-2-[(2-oxo-1,2-dihydropyridin-3-yl)amino]pyrimidin-4-yl}amino)piperidin-1-yl]-3-oxopropanenitrile], the half-inhibitory concentration (IC50) in test [1], in test [2] and in test [3] was under 100 nM in each case.

For orientation: IC50 means the concentration at which inhibition is half-maximal. Higher therefore signals weaker potency in that assay.
